Source: patent US8343956B2, “Process for making a crystalline zilpaterol salt” (Intervet International B.V., priority 2008, dated 2013)
Several values for one entry are separate records, joined by “and”; a condition that tells them apart may be missing. Identical values can stand only once.

Assay: Particle Size Distribution of zilpaterol hydrochloride batches
Format: physicochemical
Conditions: batches from crystallization process of Examples 4
Text: As used herein, particle size refers to a number particle size as measured by conventional particle size measuring techniques well known to those skilled in the art, such as laser scattering, sedimentation field flow fractionation, photon correlation spectroscopy, or disk centrifugation.
The particle size measurement indicated as Particle Size Distribution (relative amounts of particles present, sorted according to size) can be e.g. performed with a Malvern Mastersizer 2000 with the Hydro 2000G measuring cell, or with a Horiba LA-910 laser scattering particle size distribution analyzer.

Particle size Distribution <=15 μm (relative amount of crystal particles with size <=15 μm): 2.9% and 1.6% and 3.0% | Particle size Distribution >=200 μm (relative amount of crystal particles with size >=200 μm): 7.8% and 14.3% and 11.0% | Particle size Distribution >=250 μm (relative amount of crystal particles with size >=250 μm): 0.3% and 1.7% and 0.8% | Particle size Distribution >=300 μm (relative amount of crystal particles with size >=300 μm): 0% and 0.2%
Compound: CC(C)N[C@@H]1CCn2c(=O)[nH]c3cccc(c32)[C@H]1O (racemic) [Example 3, trans-(±)-4,5,6,7-tetrahydro-7-hydroxy-6-[(1-methylethyl)amino]-imidazo[4,5,1-jk][1]benzazepin-2(1H)-one]
